How the values were obtained:
[1] = Lymph node penetration assay; conditions: Intradermal injection, liposomes 30 minutes after avidin, nodes harvested 24 hours, sodium salt
Procedure: Avidin was purchased from Sigma, with the concentration at 10 mg/ml. Avidin was hydrated with injectable saline. A 50 μl aliquot, at a dose of 250 μg, was delivered as described.
SRB was purchased from Sigma (Cat.# S9012). SRB was selected for its high solubility, and due to the fact that it is readily visible to the naked eye and has fluorescent properties.
An LUV process was used to make the SRB-liposomes. Two basic formulations were developed—hi and low PE-biotin content. […] The liposome formulation contained the following: DSPC (94.0 mg; 119.0 μmoles); DSPG (10.3 mg; 13.2 μmoles); Chol (50.9 mg; 132.0 μmoles); and Diol Biotin (2.6 mg; 2.64 μmoles). The mixture was brought to about 20 ml with chloroform and methanol at a 10:1 ratio. Organic solvent was removed at 45° C. A thin film on a rotovap flask was hydrated in 18 ml of 0.1M SRB prepared in buffer (1 mM EDTA, 0.2% NaN3, pH=8.0). The lipid dye suspension was then extruded through a series of nucleopore membranes (5.0. 1.0, 0.8, 0.6, 0.4, 0.2, 0.1, 0.05 micron). Approximately 5 ml was saved after the 0.2, 0.1 and 0.05 micron membranes. Each of the 5 ml preps was centrifuged, and pellets washed with osmotically adjusted (physiological 310 mOSM) buffer. After the free SRB was washed away, the final liposome pellets were resuspended in the same buffer to the final volume of 1 ml. […]

[2] = Payload determination, low molecular weight substance (SRB); type: physicochemical; conditions: SRB dye encapsulated in liposomes, released with 5% Triton X-100, read at 565 nm
Procedure: To determine the phospholipid concentration of liposomes, 10 μl of each liposome solution was placed in a 16×100 mm glass tube along with 0.4 ml of 10 N sulfuric acid. A set of phosphate standards was prepared from a 0.645 mM stock (Sigma P3869) which was also assayed in glass tubes alongside the liposome samples. Samples, standards and blank tubes were run in duplicate. All tubes were placed in a heating block and digested for 30 minutes at 180° C. Tubes were then removed from the heating block and cooled for 5 minutes before adding 100 μl of 9% hydrogen peroxide. All tubes were then again heated for 30 minutes at 180° C. […] All standards, samples and blanks were read at 820 nm on a spectrophotometer. Using the known standard values, a curve was generated from which phosphate concentration values can be calculated for each of the liposome samples. Phosphate concentration values are expressed as μmoles Pi/mL. […]
Sulfa rhodamine-B sodium salt (“SRB”) was used to determine payload capacity for a low molecular weight substance. […] All samples and standards were then read at 565 nm on a spectrophotometer. SRB dye payload molar concentrations were then calculated from the known standard curve. Using this procedure, the payload for SRB was determined to be about 10.956 nmoles per 50 nmoles of phosphate. […]

[3] = intravenous, 200 uL single tail vein injection
Procedure: IV delivery of free and particulate ICG was administered in a 200 uL volume in a single tail vein injection.

Row | Structure (SMILES) | Visible Aggregation/Accumulation in Axillary Node ([1]; listed as Free SRB liposomes) | Visible Aggregation/Accumulation in Axillary Node [1] | payload for SRB [2] | accumulation across the peritoneal cavity [3]
1 | CCN(CC)c1ccc2c(-c3ccc(S(=O)(=O)[O-])cc3S(=O)(=O)[O-])c3ccc(=[N+](CC)CC)cc-3oc2c1.[Na+] [free SRB, Sulfa rhodamine-B sodium salt] | no SRB color retention in the node | No | about 10.956 nmoles per 50 nmoles of phosphate | –
2 | CC1(C)C(/C=C/C=C/C=C/C=C2\N(CCCCS(=O)(=O)O)c3ccc4ccccc4c3C2(C)C)=[N+](CCCCS(=O)(=O)[O-])c2ccc3ccccc3c21 [free cardiogreen, Indocyanine Green] | – | – | – | manifested accumulation across the peritoneal cavity

From patent US20070088414A1, “Particulate formulations for intradermal delivery of biologically active agents” (priority 2005, published 2007)
